Source: paper PMC11011439, “Influence of Molecular Design on the Tumor Targeting and Biodistribution of PSMA-Binding Tracers Labeled with Technetium-99m” (International Journal of Molecular Sciences, 2024)
Marks after values point to notes of the source that are not given here.

Assays:
[1] = Stability of the [99mTc]Tc-maG3 complex in PBS and under cysteine challenge (radio-HPLC); assay type: physicochemical; conditions: room temperature, 1 h
Procedure: The iTLC data were cross-validated using radio-HPLC analysis, performed using a Hitachi Chromaster HPLC system with a radioactivity detector and Phenomenex Luna® C18 column (100 Å; 150 × 4.6 mm; 5 µm) at room temperature (20 °C), in the following conditions: solvent A: 0.1% trifluoroacetic acid (TFA) in H2O, solvent B: 0.1% TFA in acetonitrile, flow rate: 1 mL/min. For identity and purity analysis of [^99mTc]Tc-BQ0411 and [^99mTc]Tc-BQ0412, the method with a gradient from 5 to 60% solvent B over 20 min was used.
To evaluate the chemical stability of the [^99mTc]Tc-maG3 complex, fractions of radiolabeled conjugates (10 µL, 0.25 µg) were incubated with a 300× molar excess of cysteine or with PBS at room temperature for 1 h. The test was run in triplicate.

[2] = Octanol/water distribution coefficient (LogD); assay type: physicochemical; conditions: n-octanol / Milli-Q water
Procedure: The LogD was determined experimentally based on the procedure described earlier. Briefly, the radiolabeled compound of interest was added to a LoBind Eppendorf tube (Eppendorf, Hamburg, Germany) containing Milli-Q water (500 μL) and n-octanol (500 μL), and the mixture was vortexed and centrifuged. Thereafter, three fractions from each phase were collected and the activity was measured using a gamma counter. The LogD was calculated by dividing the average activity measured in octanol by the average activity measured in water.

[3] = target: T1, PSMA (Homo sapiens, UniProt Q04609); assay: In vitro binding specificity (saturation with non-labeled PSMA-11) on PC3-pip cells; conditions: 2 nM tracer, 250-fold molar excess of PSMA-11, 1 h, 37 °C
T1 construct: expressed in transfected cells; host or cells: PC3-pip cells (from Prof. Martin G. Pomper, Johns Hopkins University)
T1 sequence (Q04609 whole entry): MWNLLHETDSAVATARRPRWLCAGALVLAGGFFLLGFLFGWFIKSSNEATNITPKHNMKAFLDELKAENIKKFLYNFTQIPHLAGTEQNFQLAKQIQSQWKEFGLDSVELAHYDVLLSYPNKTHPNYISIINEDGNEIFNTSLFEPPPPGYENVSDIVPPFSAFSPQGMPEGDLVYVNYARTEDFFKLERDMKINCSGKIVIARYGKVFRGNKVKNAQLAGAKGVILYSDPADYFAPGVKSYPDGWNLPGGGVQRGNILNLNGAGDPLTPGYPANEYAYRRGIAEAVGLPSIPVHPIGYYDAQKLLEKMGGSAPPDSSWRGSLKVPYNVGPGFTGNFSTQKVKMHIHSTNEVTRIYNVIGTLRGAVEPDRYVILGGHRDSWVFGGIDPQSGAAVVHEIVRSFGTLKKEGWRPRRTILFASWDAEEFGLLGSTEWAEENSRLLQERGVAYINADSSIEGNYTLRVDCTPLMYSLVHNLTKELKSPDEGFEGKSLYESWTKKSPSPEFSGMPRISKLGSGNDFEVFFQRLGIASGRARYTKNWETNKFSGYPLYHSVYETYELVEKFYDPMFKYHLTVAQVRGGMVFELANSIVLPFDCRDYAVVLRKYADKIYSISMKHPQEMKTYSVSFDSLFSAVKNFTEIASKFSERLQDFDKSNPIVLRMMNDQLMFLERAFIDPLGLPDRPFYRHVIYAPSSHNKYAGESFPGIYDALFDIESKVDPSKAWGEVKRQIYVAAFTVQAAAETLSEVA
Procedure: For the in vitro binding specificity test, approximately 8 × 10^5 of PC3-pip cells per well were seeded in 6-well plates 24 h before the experiment. Cells in three control wells were pre-saturated with a 250-fold excess of non-labeled PSMA-11 15 min before the addition of radiotracers, while the second set was treated with complete media. After 15 min of incubation at room temperature, [^99mTc]Tc-labeled radioligands were added to all wells to reach a concentration of 2 nM. After one hour of incubation at 37 °C, the cells were washed with PBS solution, detached, and collected. Cell-associated activity was measured using a gamma counter and presented as the percentage of added activity.

[4] = target: T1, PSMA; assay: Real-time binding kinetics on living PC3-pip cells (LigandTracer Yellow); conditions: 5 nM tracer, 1:2 interaction model
Procedure: The binding kinetics of [^99mTc]Tc-labeled BQ0411, BQ0412, and BQ0413 were measured in real time using LigandTracer Yellow Instruments (Ridgeview Instruments AB, Uppsala, Sweden) on PC3-pip cells, as described earlier. The activity binding was recorded at 5 nM on the radiolabeled tracers for 150 min. After measuring the binding kinetics, the medium containing the labeled tracer was replaced with fresh medium, and the dissociation was monitored over 7 h. […]

[5] = system: PC3-pip cells; assay: Cellular processing (internalization) during continuous incubation; assay type: cell-based; conditions: 2 nM, 37 °C
Procedure: To evaluate the cellular processing of [^99mTc]Tc-labeled BQ0411 and BQ0412, PC3-pip cells were incubated with the radiolabeled tracer (2 nM), and at predetermined time points (1, 2, 4, and 8 h), cells were treated with 0.5 mL of 4 M urea solution in a 0.2 M glycine buffer, pH 2.5, for 5 min on ice. After that, the acidic supernatant was collected, and this fraction was considered to be the membrane-bound activity. To lyse the cells, 0.5 mL of 1 M sodium hydroxide solution was added and incubated at 37 °C for at least 20 min. The alkaline-containing solution was collected, and the basic fraction was considered to be the internalized activity.

[6] = Biodistribution in NMRI mice; assay type: in vivo; conditions: for activity in carcass / activity in intestines with content / uptake in blood / uptake in kidney / uptake in liver / uptake in lung / uptake in salivary glands / uptake in spleen / uptake in stomach: 40 pmol/mouse iv
Procedure: Four NMRI mice were intravenously injected with 40 pmol of the radiotracer (60 kBq, the mass of the injected compound was adjusted with an unlabeled tracer). The mice were euthanized with a lethal intraperitoneal injection of ketamine/xylazine, followed by exsanguination at 3 and 24 h post-injection (pi). The organs of interest were collected, weighed, and measured for their activity content using a gamma counter. The uptake activity in organs was calculated as the percentage of injected activity per gram (%IA/g) for the blood, salivary glands, lungs, liver, spleen, stomach, and kidneys and as %IA for the remaining carcass and the rest of the intestines with content.

[7] = system: PSMA-expressing prostate cancer xenografts (PC3-pip); assay: Biodistribution and tumor targeting in PC3-pip tumor-bearing mice; assay type: in vivo, BALB/c nu/nu mice; conditions: 3 h pi
Procedure: PSMA-expressing prostate cancer xenografts were implanted in BALB/c nu/nu mice by subcutaneous injection of PC3-pip cell suspension in PBS (10^7 cells/animal in 100 µL). The average tumor weight was 0.3 ± 0.2 g at the time of the experiment. Four mice per data point were used. Mice were intravenously injected with 5 nmol of the radiotracer (60 kBq, the mass of the injected compound was adjusted with an unlabeled tracer). The mice were euthanized 3 h pi, and the samples were treated as described above.

CC(=O)NC(CCCCNC(=O)CNC(=O)C[N]1C(=O)C[N]2C(=O)C[N]3C(=O)C[S][99Tc-]132=[O])C(=O)NCCCCCCCC(=O)NC(Cc1ccc(O)cc1)C(=O)NC(Cc1ccc2ccccc2c1)C(=O)NCCCCC(NC(=O)NC(CCC(=O)O)C(=O)O)C(=O)O (stereo not drawn) [[^99mTc]Tc-BQ0411]
stability in the presence of cysteine ([1]; 300-fold molar excess of cysteine): stable
stability during incubation in PBS ([1]; PBS): stable
logD (octanol–water distribution coefficient) [2]: −2.3 ± 0.1
binding to PC3-pip cells after pre-treatment with excess non-labeled PSMA-11 [3]: significantly (p ˂ 0.0001) decreased
ka1 [4]: 24000 M⁻¹ s⁻¹
ka2 [4]: 67000 M⁻¹ s⁻¹
kd1 [4]: 1.4e-05 s⁻¹
kd2 [4]: 2e-05 s⁻¹
internalized activity (of cell-associated activity) ([5]; 4 h of continuous incubation): 44 ± 1%
internalized activity (of cell-associated activity) ([5]; after 4 h (8 h of continuous incubation)): 44.2 ± 0.7%
activity in carcass ([6]; 3 h pi): 6.4 ± 0.8 *^,a,b %IA/sample
activity in intestines with content ([6]; 3 h pi): 43 ± 6 *^,a,b %IA/sample
uptake in blood ([6]; 3 h pi): 1.4 ± 0.7 *^,a %IA/g
uptake in kidney ([6]; 3 h pi): 129 ± 22 *^,a,b %IA/g
uptake in liver ([6]; 3 h pi): 0.8 ± 0.1 *^,a %IA/g
uptake in lung ([6]; 3 h pi): 0.8 ± 0.1 *^,a %IA/g
uptake in salivary glands ([6]; 3 h pi): 0.5 ± 0.1 *^,a,b %IA/g
uptake in spleen ([6]; 3 h pi): 0.38 ± 0.07 *^,b %IA/g
uptake in stomach ([6]; 3 h pi): 0.42 ± 0.07 *^,b %IA/g
activity in carcass ([6]; 24 h pi): 0.21 ± 0.01 ^b %IA/sample
activity in intestines with content ([6]; 24 h pi): 0.3 ± 0.2 %IA/sample
uptake in blood ([6]; 24 h pi): 0.027 ± 0.002 ^b %IA/g
uptake in kidney ([6]; 24 h pi): 3.9 ± 0.6 ^b %IA/g
uptake in liver ([6]; 24 h pi): 0.032 ± 0.004 ^b %IA/g
uptake in lung ([6]; 24 h pi): 0.019 ± 0.005 ^b %IA/g
uptake in salivary glands ([6]; 24 h pi): 0.022 ± 0.005 ^b %IA/g
uptake in spleen ([6]; 24 h pi): 0.015 ± 0.002 %IA/g
uptake in stomach ([6]; 24 h pi): 0.06 ± 0.02 ^b %IA/g
activity remaining in the body ([6]; 3 h pi, excluding activity in the intestines with content): 40–50 % from injected
washout of activity from kidneys ([6]; 24 h pi compared to 3 h pi): 97%
activity in carcass ([7]; 5 nmol/mouse iv): 3.5 ± 0.9 %IA/sample
activity in intestines with content ([7]; 5 nmol/mouse iv): 44 ± 5 ^a,b %IA/sample
uptake in blood ([7]; 5 nmol/mouse iv): 1.0 ± 0.4 ^b %IA/g
uptake in bone ([7]; 5 nmol/mouse iv): 0.20 ± 0.06 %IA/g
uptake in kidney ([7]; 5 nmol/mouse iv): 13 ± 6 %IA/g
uptake in liver ([7]; 5 nmol/mouse iv): 1.9 ± 0.7 ^a,b %IA/g
uptake in lung ([7]; 5 nmol/mouse iv): 0.9 ± 0.3 ^a,b %IA/g
uptake in muscle ([7]; 5 nmol/mouse iv): 0.17 ± 0.05 %IA/g
uptake in pancreas ([7]; 5 nmol/mouse iv): 0.2 ± 0.1 %IA/g
uptake in salivary glands ([7]; 5 nmol/mouse iv): 0.4 ± 0.1 %IA/g
uptake in small intestine ([7]; 5 nmol/mouse iv): 0.9 ± 0.4 %IA/g
uptake in spleen ([7]; 5 nmol/mouse iv): 1.0 ± 0.2 %IA/g
uptake in stomach ([7]; 5 nmol/mouse iv): 0.4 ± 0.2 %IA/g
uptake in tumor ([7]; 5 nmol/mouse iv): 27 ± 4 ^a,b %IA/g
tumor-to-blood ratio ([7]; 5 nmol/mouse): 32 ± 11 ^b
tumor-to-bone ratio ([7]; 5 nmol/mouse): 146 ± 57
tumor-to-kidney ratio ([7]; 5 nmol/mouse): 2.3 ± 0.8 ^a
tumor-to-liver ratio ([7]; 5 nmol/mouse): 16 ± 7 ^a,b
tumor-to-lung ratio ([7]; 5 nmol/mouse): 33 ± 9 ^b
tumor-to-muscle ratio ([7]; 5 nmol/mouse): 173 ± 47 ^b
tumor-to-pancreas ratio ([7]; 5 nmol/mouse): 121 ± 46
tumor-to-salivary ratio ([7]; 5 nmol/mouse): 69 ± 16 ^b
tumor-to-small intestine ratio ([7]; 5 nmol/mouse): 35 ± 18 ^b
tumor-to-spleen ratio ([7]; 5 nmol/mouse): 24 ± 7
tumor-to-stomach ratio ([7]; 5 nmol/mouse): 86 ± 43 ^b
activity uptake in the gastrointestinal tract (with content) [7]: over 40 %IA
tumor uptake, fold higher compared with [99mTc]Tc-BQ0412 and [99mTc]Tc-BQ0413 [7]: 1.6 fold
